Assays:
Panx-1 channels = molecular target: T1, Panx-1 channels (Mus musculus, UniProt Q9JIP4); assay: Voltage clamp on Xenopus laevis oocytes expressing Panx-1 channels; assay type: cell-based; details: for inhibition at 50 µM / I (%) inhibition of Panx-1 currents: voltage clamp, Xenopus laevis oocytes expressing Panx-1 channels, 50 µM; for inhibition at 50 µM: read-out: I (%) inhibition of Panx-1 currents; for classification as active or inactive Panx-1 blocker: grouping chosen for the virtual screening
T1 construct: expressed in transfected cells; host or cells: Xenopus laevis oocytes injected with in vitro-transcribed mRNA
Protocol: All new products were screened as Panx-1 blockers at the dose of 50 µM using the Voltage Clamp technique on Xenopus Laevis oocytes expressing Panx-1 channels. The membrane potential of the cells was held at -60 mV and voltage steps to +60 mV were applied to induce membrane currents. To verify that Panx-1 channels carried the currents, in each experiment 100 µM carbenoxolone (CBX) was applied. At this concentration, CBX is known to yield 100% inhibition of Panx-1 activity. If present, leak currents resistant to CBX were subtracted from the total current to assess % inhibition mediated by the tested compounds. Table 1 and Table 2 report the electrophysiological results of naphthalene-2-sulphonic acid derivatives bearing at position 5 an amino- (3a–e, 4 and 5) or amide group (7a–g, 8 and 9) and of compound 13.
Oocytes of Xenopus laevis are prepared as previously described in [39] where the oocytes are isolated from surgically removed ovary segments incubated in an Oocyte Ringe solution Ca2-free (OR2: in mM: 82.5 NaCl, 2.5 KCl, 1.0 MgCl2, […], 1.0 Na2HPO4 e 5.0 HEPES, pH 7.5) with 2 mg/mL of collagenase and antibiotics (10,000 U/mL penicillin and 10 mg/mL of streptomycin) stirred at room temperature for 3 h. After being washed with OR2, oocytes free of follicular cells and that have a uniform pigmentation are chosen and stored in OR2 for 18 °C.
Mouse pannexin1, in pCS2, was linearised with NotI. In vitro transcription was performed with the polymerase SP6, using the Message Machine kit (Ambion). mRNA was quantified by absorbance (260 nm), and the proportion of full-length transcripts was checked by agarose gel electrophoresis. In vitro-transcribed mRNA (~20 nL) was injected into Xenopus laevis oocytes.
Whole-cell membrane currents of oocytes were measured using a two-electrode voltage clamp (Gene Clamp 500B, Axon Instruments/Molecular Devices Sunnyvale, Union City, CA, USA). Glass pipettes were pulled using a P-97 Flaming/Brown type puller (Sutter, Novato, CA, USA). The recording chamber was perfused continuously with frog Ringer (OR) solution (in mM: 82.5 NaCl, 2.5 KCl, 1 CaCl2, 1 MgCl2, 1 Na2HPO4, and 5 HEPES, pH 7.5).
Membrane conductance was determined using voltage pulses, and the pulse-induced current amplitudes were divided by the amplitudes of the voltage steps. For calculation of % inhibition, leak currents were subtracted. Typically, leak currents after the interventions were smaller than at the beginning of the experiment and this smaller value was used for the subtraction to avoid overestimation of the inhibitory effect. For an independent measure of the leak current, oocytes at the end of the experiment were exposed to 100 µM carbenoxolone, which is known to close Panx1 channels 100%. Oocytes expressing Panx1 were held at −60 mV, and pulses to +60 mV were applied to transiently open the channels by means of the voltage gate. Pulses 5 s in duration were applied at 0.1 Hz for current and conductance measurements.

T1 sequence (Q9JIP4 whole entry): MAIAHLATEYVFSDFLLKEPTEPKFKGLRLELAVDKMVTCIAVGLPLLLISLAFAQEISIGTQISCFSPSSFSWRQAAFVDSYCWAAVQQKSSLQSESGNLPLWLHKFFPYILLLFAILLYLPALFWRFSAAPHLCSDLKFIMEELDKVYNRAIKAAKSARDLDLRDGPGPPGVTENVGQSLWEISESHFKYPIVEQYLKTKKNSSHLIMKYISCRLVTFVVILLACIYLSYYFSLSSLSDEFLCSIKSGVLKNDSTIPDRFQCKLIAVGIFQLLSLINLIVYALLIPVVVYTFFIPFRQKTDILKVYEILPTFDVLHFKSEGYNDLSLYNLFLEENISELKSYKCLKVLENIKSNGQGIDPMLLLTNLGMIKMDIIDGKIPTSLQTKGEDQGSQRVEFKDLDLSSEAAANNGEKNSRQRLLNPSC

| Compound | melting point | inhibition at 50 µM (Panx-1 channels) [%] | further results |
| --- | --- | --- | --- |
| O=S(=O)(O)c1ccc2c(NCc3ccccc3)cccc2c1 (hydrate or solvate) [Compound 3a, 5-(Benzylamino)naphthalene-2-Sulfonic Acid] | > 300 °C |  |  |
| O=S(=O)(O)c1ccc2c(NCCc3ccccc3)cccc2c1 (hydrate or solvate) [Compound 3b, 5-(Phenethylamino)naphthalene-2-sulfonic acid] | > 300 °C |  |  |
| O=S(=O)(O)c1ccc2c(NCCCc3ccccc3)cccc2c1 (hydrate or solvate) [Compound 3c, 5-[(3-Phenylpropyl)amino]naphthalene-2-sulfonic acid] | > 300 °C |  |  |
| O=S(=O)(O)c1ccc2c(NCCCCc3ccccc3)cccc2c1 (hydrate or solvate) [Compound 3d, 5-[(4-Phenylbutyl)amino]naphthalene-2-sulfonic acid] | > 300 °C |  |  |
| O=S(=O)(O)c1ccc2c(NCCCCCc3ccccc3)cccc2c1 (hydrate or solvate) [Compound 3e, 5-[(5-Phenylpentyl)amino]naphthalene-2-sulfonic acid] | > 300 °C |  |  |
| O=C(O)c1ccc(CNc2cccc3cc(S(=O)(=O)O)ccc23)cc1 (hydrate or solvate) [Compound 4, 4-[(6-Sulfonaphthalen-1-yl)aminomethyl]benzoic Acid] | > 300 °C |  |  |
| CN(Cc1ccccc1)c1cccc2cc(S(=O)(=O)O)ccc12 (hydrate or solvate) [Compound 5, 5-(Benzyl(methyl)amino)naphthalene-2-sulfonic Acid] | > 300 °C |  |  |
| O=C(O)c1ccc(CN(Cc2ccc(C(=O)O)cc2)S(=O)(=O)c2ccc(C(=O)O)cc2)cc1 (hydrate or solvate) [Compound 13, 4,4′-{{[(4-Carboxyphenyl)sulfonyl]azanediyl}bis(methylene)}dibenzoic acid] | > 300 °C |  |  |
| O=S(=O)(O)c1ccc2c(NCc3ccccc3)cccc2c1 [Compound 3a, 5-(Benzylamino)naphthalene-2-Sulfonic Acid] |  | 31.7 ± 0.9 | classification as active or inactive Panx-1 blocker (Panx-1 channels): inactive |
| O=S(=O)(O)c1ccc2c(NCCc3ccccc3)cccc2c1 [Compound 3b, 5-(Phenethylamino)naphthalene-2-sulfonic acid] |  | 24.3 ± 3.5 |  |
| O=S(=O)(O)c1ccc2c(NCCCCc3ccccc3)cccc2c1 [Compound 3d, 5-[(4-Phenylbutyl)amino]naphthalene-2-sulfonic acid] |  | 47 ± 5.7 |  |
| O=S(=O)(O)c1ccc2c(NCCCCCc3ccccc3)cccc2c1 [Compound 3e, 5-[(5-Phenylpentyl)amino]naphthalene-2-sulfonic acid] |  | 62 ± 6 |  |
| COC(=O)c1ccc(CNc2cccc3cc(S(=O)(=O)O)ccc23)cc1 [Compound 3f, 5-[(4-(Methoxycarbonyl)benzyl)amino]naphthalene-2-sulfonic acid] | > 300 °C |  |  |
| CN(Cc1ccccc1)c1cccc2cc(S(=O)(=O)O)ccc12 [Compound 5, 5-(Benzyl(methyl)amino)naphthalene-2-sulfonic Acid] |  | 27.3 ± 2.6 |  |
| O=C(Nc1cccc2cc(S(=O)(=O)O)ccc12)c1ccccc1 [Compound 8, 5-Benzamidonaphthalene-2-sulfonic Acid] |  | 15 | I (%) inhibition of Panx-1 currents (Panx-1 channels): 15.3 ± 4.9%; classification as active or inactive Panx-1 blocker (Panx-1 channels): inactive |
| CCCCN(CCCC)S(=O)(=O)c1ccc(C(=O)Nc2cccc3cc(S(=O)(=O)[O-])ccc23)cc1.[Na+] [Compound 9, Sodium 5-[4-(N,N-dibutylsulfamoyl)benzamido]naphthalene-2-sulfonate] |  |  | I (%) inhibition of Panx-1 currents (Panx-1 channels): 65.3 ± 3.9% |
| Nc1c(C(=O)O)cnn1-c1ccc(S(N)(=O)=O)cc1 [Compound 17, 5-Amino-1-(4-sulfamoylphenyl)-1H-pyrazole-4-carboxylic acid] | 210 to 211 °C | 0 |  |

Now from value to compound, other results behind:

| melting point | inhibition at 50 µM (Panx-1 channels) [%] | Compound | further results |
| --- | --- | --- | --- |
| > 300 °C |  | CCN(CC)S(=O)(=O)c1ccc(C(=O)Nc2cccc3cc(S(=O)(=O)O)ccc23)cc1 (hydrate or solvate) [Compound 7a, 5-[4-(N,N-diethylsulfamoyl)benzamido]naphthalene-2-sulfonic acid] |  |
| > 300 °C |  | CCCN(CCC)S(=O)(=O)c1ccc(C(=O)Nc2cccc3cc(S(=O)(=O)O)ccc23)cc1 (hydrate or solvate) [Compound 7b, 5-[4-(N,N-dipropylsulfamoyl)benzamido]naphthalene-2-sulfonic acid] |  |
| > 300 °C |  | CCCCN(CCCC)S(=O)(=O)c1ccc(C(=O)Nc2cccc3cc(S(=O)(=O)O)ccc23)cc1 (hydrate or solvate) [Compound 7c, 5-[4-(N,N-dibutylsulfamoyl)benzamido]naphthalene-2-sulfonic acid] |  |
| > 300 °C |  | O=C(Nc1cccc2cc(S(=O)(=O)O)ccc12)c1ccc(S(=O)(=O)N(Cc2ccccc2)Cc2ccccc2)cc1 (hydrate or solvate) [Compound 7d, 5-[4-(N,N-dibenzylsulfamoyl)benzamido]naphthalene-2-sulfonic acid] |  |
| > 300 °C |  | O=C(Nc1cccc2cc(S(=O)(=O)O)ccc12)c1ccc(S(=O)(=O)N(CCc2ccccc2)CCc2ccccc2)cc1 (hydrate or solvate) [Compound 7e, 5-[4-(N,N-diphenethylsulfamoyl)benzamido]naphthalene-2-sulfonic acid] |  |
| > 300 °C |  | O=C(Nc1cccc2cc(S(=O)(=O)O)ccc12)c1ccc(S(=O)(=O)N(CCc2ccccc2)Cc2ccccc2)cc1 (hydrate or solvate) [Compound 7f, 5-[4-(N-benzyl-N-phenethylsulfamoyl)benzamido]naphthalene-2-sulfonic acid] |  |
| > 300 °C |  | O=C(Nc1cccc2cc(S(=O)(=O)O)ccc12)c1ccc(S(=O)(=O)NCCc2ccccc2)cc1 (hydrate or solvate) [Compound 7g, 5-[4-(N-phenethylsulfamoyl)benzamido]naphthalene-2-sulfonic acid] |  |
|  | 54 ± 2.3 | CCN(CC)S(=O)(=O)c1ccc(C(=O)Nc2cccc3cc(S(=O)(=O)O)ccc23)cc1 [Compound 7a, 5-[4-(N,N-diethylsulfamoyl)benzamido]naphthalene-2-sulfonic acid] |  |
|  | 34 | CCCN(CCC)S(=O)(=O)c1ccc(C(=O)Nc2cccc3cc(S(=O)(=O)O)ccc23)cc1 [Compound 7b, 5-[4-(N,N-dipropylsulfamoyl)benzamido]naphthalene-2-sulfonic acid] | I (%) inhibition of Panx-1 currents (Panx-1 channels): 34.3 ± 5.2% |
|  | 58.3 ± 7.5 | O=C(Nc1cccc2cc(S(=O)(=O)O)ccc12)c1ccc(S(=O)(=O)N(CCc2ccccc2)CCc2ccccc2)cc1 [Compound 7e, 5-[4-(N,N-diphenethylsulfamoyl)benzamido]naphthalene-2-sulfonic acid] |  |
|  | 61.3 ± 4.3 | O=C(Nc1cccc2cc(S(=O)(=O)O)ccc12)c1ccc(S(=O)(=O)N(CCc2ccccc2)Cc2ccccc2)cc1 [Compound 7f, 5-[4-(N-benzyl-N-phenethylsulfamoyl)benzamido]naphthalene-2-sulfonic acid] |  |
|  | 47.3 ± 6.5 | O=C(Nc1cccc2cc(S(=O)(=O)O)ccc12)c1ccc(S(=O)(=O)NCCc2ccccc2)cc1 [Compound 7g, 5-[4-(N-phenethylsulfamoyl)benzamido]naphthalene-2-sulfonic acid] | classification as active or inactive Panx-1 blocker (Panx-1 channels): inactive |
| 208 to 210 °C (dec.) | 0 | CCNS(=O)(=O)c1ccc(-n2ncc(C(=O)O)c2N)cc1 [Compound 18a, 5-Amino-1-(4-(N-ethylsulfamoyl)phenyl)-1H-pyrazole-4-carboxylic acid] |  |
| 215 to 218 °C | 4 ± 2.3 | CCCNS(=O)(=O)c1ccc(-n2ncc(C(=O)O)c2N)cc1 [Compound 18b, 5-Amino-1-(4-(N-propylsulfamoyl)phenyl)-1H-pyrazole-4-carboxylic acid] |  |
| > 300 °C | 10.3 ± 4.9 | CCCCNS(=O)(=O)c1ccc(-n2ncc(C(=O)O)c2N)cc1 [Compound 18c, 5-Amino-1-(4-(N-butylsulfamoyl)phenyl)-1H-pyrazole-4-carboxylic acid] |  |
